# Laboratory results as given in US12409183B2, “Method of using iloprost for treating frostbite” (BTG INTERNATIONAL INC., priority 2023, dated 2025).
# Read-outs that look alike come from different tables or passages of the source.
# Key:
# severe frostbite [1] = conditions: cited from earlier work
# [2] = IV bag solution stability of fully diluted ready-to-use iloprost (HPLC); assay type: physicochemical; conditions: condition ia, 25° C./60% RH study; Table 1A
# Protocol: Iloprost 100 μg/mL injection product is administered to patients by IV bag infusion over a period of six hours. The fully diluted ready to use iloprost is prepared in pharmacy cleanroom using sterile preparation standards (USP Chapter <797>) by pharmacy trained and licensed staff. The fully diluted ready to use drug product may be prepared several hours ahead of treatment with storage at ambient conditions or several days ahead of treatment with storage at refrigerated (2-8° C.) conditions. […] The bags are then manually mixed gently to provide a uniform solution. Administration IV bags were prepared and stored at several conditions with routine sampling for assay testing for stability under i) 25° C./60% RH, ii) 5° C. for 5 days to 25° C./60% RH, iii) 5° C. for 8 days to 25° C./60% RH. […] Sampling time for condition […], and 24 h Sampling time for ib): 8 h, 12 h, 48 h, and 96 h Sampling time for condition ii): 5 days (at the end of storage in 2-8° C. stability chamber), 5 days and 8 h, and 5 days and 12 h Sampling time for condition iii): 8 days (at the end of storage in 2-8° C. stability chamber), 8 days and 8 h, and 8 days and 12 h Sample Analysis: Samples were analyzed by HPLC using a validated method (validation protocol not shown). […] The % Initial (initial concentration) of each stored sample was determined per the equation below: […]
# [3] = iloprost infusion; ratio x:1; cited from earlier work
# severe frostbite [4] = experiment: systematic literature review and meta-analysis of amputation rates in severe frostbite; assay type: in vivo, human
# Protocol: Frostbite is an injury caused by exposure of tissue to freezing temperatures. Severe frostbite may result in amputation leading to considerable morbidity. The objective was to identify and synthesize, via systematic literature review and meta-analysis (MA), evidence published on patient-level historical amputation rates in adults with severe frostbite treated with and without iloprost.
# Methods: The literature review was conducted using Preferred Reporting Items for Systematic Reviews and Meta-Analyses (PRISMA) guidelines. It identified English-language articles published from Jan. 1, 2000 to Jul. 31, 2022 reporting amputation rates associated with iloprost and standard of care (SoC) treatments in severe frostbite. Study designs of interest were clinical trials (randomized and single arm), observational studies, and case series with at least 10 patients. MAs of proportions of patients with amputation were conducted. The published studies considered for the MA include:
# Determination of Risk of Amputation: Table 1 discloses the historical amputation rates in severe frostbite patients. The studies listed in Table 1 was the basis of MA for determining the historical risk of amputation.
# Sensitivity analyses reflect several ways of deriving the data (amputation rate for grade 3-4 frostbite) from the supplemental table in Cauchy 2011 (Cauchy et al., 2011).
# Efficacy Proportion of Digits with Amputation: Data from 2 studies reporting the proportion of digits with amputations after receiving iloprost versus SoC for Grade 3/4 frostbite were included in the meta-analysis.
# [5] = Cauchy 2011, iloprost alone and iloprost+tPA combined (n=177)
compound,measurement,setting,value
"CC#CCC(C)[C@H](O)/C=C/[C@@H]1[C@H]2C/C(=C/CCCC(=O)O)C[C@H]2C[C@H]1O (stereo partly drawn) [iloprost, (5E)-5-[(3aS,4R,5R,6aS)-5-hydroxy-4-[(E,3S)-3-hydroxy-4-methyloct-1-en-6-ynyl]-3,3a,4,5,6,6a-hexahydro-1H-pentalen-2-ylidene]pentanoic acid]",Amputation Rate: patients considered likely to receive amputation,"severe frostbite [1]; Cauchy 2011, open label RCT, severe (grades 3 or 4) frostbite, with SoC after rewarming, radiotracer anomaly in technetium scintigraphy after 8 days of treatment",0 patients
same,digits with amputation,"severe frostbite [1]; Cauchy 2011, Grade 3/4 frostbite, iloprost alone",zero out of 78
same,digit amputations,severe frostbite [1]; [5],1.3%
same,number of digit amputations,severe frostbite [1]; [5],3
same,digits with amputation,"severe frostbite [1]; Crooks 2022, Grade 3-4 frostbite, minority of iloprost patients also received tPA (5 of 26)",31.1%
same,patients with amputation,"severe frostbite [1]; Poole 2021, iloprost plus SoC, with or without alteplase and heparin",33%
same,safety events associated with iloprost,"severe frostbite [1]; three iloprost frostbite studies, headache, flushing, palpitations/tachycardia, nausea and vomiting",generally mild
same,% initial results for all of the IV bag preparations (range),[2],94.2-94.9%
same,ratio of antiaggregatory:vasodilatory potency in vivo,[3],2-7
same,"odds ratio (OR) of digit amputation, iloprost+tPA patients of Cauchy 2011 added","severe frostbite [4]; iloprost alone and iloprost plus tPA vs SoC, 95% CI: 0.001, 1.12, p=0.057, FIG. 4",0.034
same,"odds ratio (OR) of digit amputation, base-case","severe frostbite [4]; iloprost alone vs SoC, 2 studies meta-analyzed, 95% CI: 0.002-0.966, p=0.047, FIG. 3",0.047
same,"proportion of patients with amputation, pooled arm-level data","severe frostbite [4]; meta-analysis, random effects, 95% CI: 0-45%, FIG. 2",15%
same,"advantage for iloprost over SoC (reduction in amputation), base-case","severe frostbite [4]; studies with severe frostbite, no alprostadil, 95% CI: 6-73%, p=0.02",39%
